pEC50: −log10 of the molar value.

Our source for the EC50 values is PubChem BioAssay AID2116 (The Scripps Research Institute Molecular Screening Center, 2009).

The target in the assay is Mucolipin-3 (Homo sapiens) (UniProt Q8TDD5). In words: TRPML3 and TRPML2 channel agonists, cell-based, patch clamp, Fura-2 profiling panel (AID 2116). As to conditions: HEK293 cells expressing TRPML3-YFP, TRPML3 Dose Response. Background: In patch-clamp work, channel activity is measured electrically.
Sequence of Mucolipin-3 (Homo sapiens) (Q8TDD5 whole entry, looked up): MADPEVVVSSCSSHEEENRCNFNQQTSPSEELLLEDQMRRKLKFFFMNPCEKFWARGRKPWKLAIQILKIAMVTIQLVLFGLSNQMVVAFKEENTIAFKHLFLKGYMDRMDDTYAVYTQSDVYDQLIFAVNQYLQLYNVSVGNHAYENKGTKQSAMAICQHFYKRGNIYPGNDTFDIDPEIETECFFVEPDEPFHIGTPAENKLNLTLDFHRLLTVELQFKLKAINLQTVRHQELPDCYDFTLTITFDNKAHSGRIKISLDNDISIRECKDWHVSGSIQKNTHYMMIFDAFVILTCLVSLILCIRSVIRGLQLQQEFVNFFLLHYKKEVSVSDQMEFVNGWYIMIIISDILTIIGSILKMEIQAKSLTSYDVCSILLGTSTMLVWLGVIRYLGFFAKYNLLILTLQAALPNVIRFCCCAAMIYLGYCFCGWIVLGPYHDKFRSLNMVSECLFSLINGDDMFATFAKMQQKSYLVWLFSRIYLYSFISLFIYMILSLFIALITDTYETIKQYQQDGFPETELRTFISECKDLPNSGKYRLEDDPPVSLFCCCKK

Usually pEC50 stands for −log10 of the EC50, conventionally taken in molar units. Turning to `O=S(=O)(Nc1ccccc1N1CCOCC1)c1ccc(Cl)s1`, the negative logarithm of the EC50 (pEC50) was 5.96.

With `O=S(=O)(NC1CCCCC1N1CCOCC1)c1ccc(Cl)cc1` (configuration not stated), the pEC50 is 6.35.
